Reference: patent US11185593B2, “Alkylating agent for alkylating target with driver oncogene mutation” (Chiba Prefecture, priority 2013, dated 2021)

Assays:
LS180 cells = assay: Cytotoxicity test, WST-8 (cell counting kit-8), 48 hours; assay type: cell-based, human; conditions: LS180 cells
Method: Using LS180 colon cell line, the cells were seeded in each well of a 96-well microplate, resulting in a cell density of 3000 to 5000 cells/well, and they were then cultured overnight. On the following day, KR12 recognizing a codon 12 mutation, WT recognizing wild-type KRAS, and C12-Dp having the same structure as that of KR12, to which an alkylating agent had not been added, were each added to the cultured cells in concentrations of 1 nM, 10 nM, 30 nM, 100 nM, 300 nM, and 1 μM, and were then treated for 48 hours. Thereafter, a WST-8 reagent was added to each well, using cell counting kit-8 (DOJINDO), and the obtained mixture was then reacted for 2 hours. After that, the number of cells was counted at a wavelength of 450 nm according to a colorimetric analysis method using a microplate reader. The method of counting the number of cells comprises: 1) obtaining the mean value of the medium alone, 2) subtracting the mean value of the medium from each well, 3) obtaining the mean value of DMSO, 4) dividing the medium-subtracted value by the mean value of DMSO and then multiplying by 100, 5) obtaining the mean value of each treatment group and a standard deviation, and then preparing a graph. The calculation formula of IC50 is the following: IC50=10 (LOG (A/B)×(50−C)/(D−C)+LOG (B)), wherein A: a higher concentration of two concentrations sandwiching 50%, B: a lower concentration of two concentrations sandwiching 50%, C: inhibitory percentage at B, and D: inhibitory percentage at A.
Using colon cancer and pancreatic cancer cell lines, the cells were seeded in each well of a 96-well microplate, resulting in a cell density of 3000 to 5000 cells/well, and they were then cultured overnight. On the following day, the cells of each type were treated with KR12 recognizing a codon 12 mutation in concentrations of 1 nM, 10 nM, 30 nM, 100 nM, 300 nM, and 1 μM for 48 hours. Thereafter, a WST-8 reagent was added to each well, using cell counting kit-8, and the obtained mixture was then reacted for 2 hours. After that, the number of cells was counted at a wavelength of 450 nm according to a colorimetric analysis method using a microplate reader. The method of counting the number of cells comprises: 1) obtaining the mean value of the medium alone, 2) subtracting the mean value of the medium from each well, 3) obtaining the mean value of DMSO, 4) dividing the medium-subtracted value by the mean value of DMSO and then multiplying by 100, 5) obtaining the mean value of each treatment group and a standard deviation, and then preparing a graph. […]

Kelly cells = assay: Cytotoxicity test, Cell Counting Kit-8, 72 hours; assay type: cell-based; conditions: ALK F1174L neuroblastoma
Method: (§1) The experiment was carried out in the same manner as that in the case of using KR12. The cells used in the experiment were Kelly cells, SK-N-SH cells, IMR-32 cells, SK-N-AS cells, and MDA-MB-231 cells. These cells were cultured in a DMEM, 10% FBS and 1% Pen/St medium, and in an RPMI1640, 10% FBS and 1% Pen/St medium, respectively. The cells of each type were seeded in each well of a 96-well plate at a cell density of 1000 cells/50 μl/well, and were then cultured under conditions of 37° C., 5% CO2, and saturated humidity for 24 hours. Thereafter, a reagent was diluted with a medium (final concentration: 1, 3, 10, 30, and 100 nM), and the diluted reagent was then added to the cultured cells in an amount of 50 μl/well, and the obtained mixture was then blended. The thus obtained mixture was cultured again under conditions of 37° C., 5% CO2, and saturated humidity for 72 hours. Thereafter, Cell Counting Kit-8 (DOJINDO) was added to the obtained culture in an amount of 10 μl/well, and the thus obtained mixture was blended and was then cultured under conditions of 37° C., 5% CO2, and saturated humidity for 2 hours. The absorbance was measured using Microplate Reader MTP-310 Lab (COLONA ELECTORIC), and the IC50 value was then calculated.

SK-N-AS cells = assay: Cytotoxicity test, Cell Counting Kit-8, 72 hours; assay type: cell-based; conditions: Homo sapiens, wild-type ALK neuroblastoma
Method: as §1

SK-N-SH cells = assay: Cytotoxicity test, Cell Counting Kit-8, 72 hours; assay type: cell-based; conditions: Homo sapiens, ALK F1174L neuroblastoma
Method: as §1

IMR-32 cells = assay: Cytotoxicity test, Cell Counting Kit-8, 72 hours; assay type: cell-based; conditions: Homo sapiens
Method: as §1
as §1, with “were” for “were Kelly cells, SK-N-SH cells,”, “cells” for “cells, SK-N-AS cells,”, “TGW” for “MDA-MB-231”

MDA-MB-231 cells = assay: Cytotoxicity test, Cell Counting Kit-8, 72 hours; assay type: cell-based; conditions: Homo sapiens, MDA-MB-231, breast cancer
Method: as §1, with “Thereafter, Cell Counting Kit-8 (DOJINDO) was added to the obtained culture in an amount of 10 μl/well, and the thus obtained mixture was blended and was then cultured under conditions of 37° C., 5% CO2, and saturated humidity for 2 hours.” left out
The experiment was carried out in the same manner as that in the case of using KR12. […] The absorbance was measured using Microplate Reader MTP-310 Lab (COLONA ELECTORIC), and the IC50 value was then calculated.

[1] = Body weight and health condition of treated nude mice; assay type: in vivo; conditions: nude mice with SW480 cells; FIG. 15; seco CBI 8.4 mmol
Method: The below-mentioned 3 types of PBS solutions containing each type of cells were subcutaneously transplanted into the femurs of nude mice (i.e., HT29 into 7 mice, LS180 into 7 mice, and SW480 into 6 mice), and thereafter, at a time point in which a tumor adhered to the living body of each mouse and the tumor volume became approximately 100 mm^3, a drug was prepared with a composition of 3.4 mmol KR12 (1.36 mM KR12 dissolved in 2.5 μL of DMSO and 197.5 μL of PBS), or of a DMSO/PBS control (2.5 μL of DMSO and 197.5 μL of PBS). The prepared drug was subjected to sonication for 10 minutes, and 200 μL of the drug was administered to each mouse via the caudal vein thereof. The body weight and the tumor size were measured once three days, and the size of the tumor was measured by the method of 0.52×L×W×D(1/6×π×L×W×D).
Using, as controls, PIP-indole-seco-CBI (KR13) not recognizing a codon 12 mutation and 8.4 mmol seco CBI (3.36 mM CBI dissolved in 2.5 μL of DMSO and 197.5 μL of PBS), instead of the DMSO/PBS control, an experiment was carried out by the same method as that of the above section 11.

MCF7 cells = assay: Cytotoxicity test, Cell Counting Kit-8, 72 hours; assay type: cell-based; conditions: Homo sapiens, MCF7, breast cancer, PIK3CA E545K, FIG. 27A
Method: as §1, with “MCF7 cells” for “Kelly cells, SK-N-SH cells, IMR-32 cells, SK-N-AS cells,”

TGW cells = assay: Cytotoxicity test, Cell Counting Kit-8, 72 hours; assay type: cell-based; conditions: TGW cells, 1 to 100 nM, FIG. 33
Method: as §1, with “were” for “were Kelly cells, SK-N-SH cells,”, “cells” for “cells, SK-N-AS cells,”, “TGW” for “MDA-MB-231”

Q: With CC(=O)Nc1cn(C)c(C(=O)Nc2cn(C)c(C(=O)NCCC(=O)Nc3cn(C)c(C(=O)Nc4cn(C)c(C(=O)Nc5cc(C(=O)Nc6cn(C)c(C(=O)NCCCC(=O)Nc7cc(C(=O)Nc8cn(C)c(C(=O)NCCC(=O)Nc9cc(C(=O)Nc%10cc(C(=O)Nc%11ccc%12[nH]c(C(=O)N%13CC(CCl)c%14c%13cc(O)c%13ccccc%14%13)cc%12c%11)n(C)c%10)n(C)c9)n8)n(C)c7)n6)n(C)c5)n4)n3)n2)n1 (stereo not shown) [WT] as the compound, how does the IC50 (LS180 cells; Homo sapiens, WST-8, FIG. 8, read-out: IC50) read?
A: 193 nM

Q: For CC(=O)Nc1cc(C(=O)Nc2cc(C(=O)Nc3cc(C(=O)Nc4cc(C(=O)NCCC(=O)Nc5cc(C(=O)Nc6cc(C(=O)Nc7cc(C(=O)NCCCC(=O)Nc8cn(C)c(C(=O)Nc9cn(C)c(C(=O)NCCC(=O)Nc%10cn(C)c(C(=O)Nc%11cn(C)c(C(=O)Nc%12cc(C(=O)Nc%13ccc%14[nH]c(C(=O)N%15CC(CCl)c%16c%15cc(O)c%15ccccc%16%15)cc%14c%13)n(C)c%12)n%11)n%10)n9)n8)n(C)c7)n(C)c6)n(C)c5)n(C)c4)n(C)c3)n(C)c2)n(C)c1 (stereo not shown) [ALK-FL-1], which IC50 (Kelly cells) is on record?
A: 0.09 nM

Q: And the IC50 (SK-N-AS cells)?
A: 2.6 nM

Q: And the IC50 (SK-N-SH cells)?
A: 0.13 nM

Q: What about the IC50 (IMR-32 cells; IMR-32, IMR32, wild-type ALK neuroblastoma) of the same compound?
A: 0.46 nM

Q: And the IC50 (MDA-MB-231 cells; wild-type ALK gene)?
A: 7.5 nM

Q: For CC(=O)Nc1cn(C)c(C(=O)Nc2cc(C(=O)NCCC(=O)Nc3cn(C)c(C(=O)Nc4cn(C)c(C(=O)Nc5cc(C(=O)Nc6cn(C)c(C(=O)NCCCC(=O)Nc7cc(C(=O)Nc8cn(C)c(C(=O)NCCC(=O)Nc9cc(C(=O)Nc%10cc(C(=O)Nc%11ccc%12[nH]c(C(=O)NCCC(=O)N(C)C)cc%12c%11)n(C)c%10)n(C)c9)n8)n(C)c7)n6)n(C)c5)n4)n3)n(C)c2)n1 [C12-Dp], which “suppression of the cell growth” value (LS180 cells; 1 nM to 1 μM, FIG. 8) is on record?
A: suppression of the cell growth was not observed

Q: With Oc1cc2c(c3ccccc13)C(CCl)CN2 (stereo not shown) [seco-CBI, 1-chloromethyl-5-hydroxy-1,2-dihydro-3H-benzo[e]indole] as the compound, how does the “tendency of body weight reduction” value [1] read?
A: the tendency of body weight reduction, which was observed

Q: For CC(=O)Nc1cc(C(=O)Nc2cc(C(=O)Nc3cn(C)c(C(=O)Nc4cc(C(=O)NCCC(=O)Nc5cn(C)c(C(=O)Nc6cn(C)c(C(=O)NCCCC(=O)Nc7cc(C(=O)Nc8cc(C(=O)NCCC(=O)Nc9cn(C)c(C(=O)Nc%10cc(C(=O)Nc%11ccc%12[nH]c(C(=O)N%13CC(CCl)c%14c%13cc(O)c%13ccccc%14%13)cc%12c%11)n(C)c%10)n9)n(C)c8)n(C)c7)n6)n5)n(C)c4)n3)n(C)c2)n(C)c1 (stereo not shown) [P3A-E5K-1], which IC50 (MDA-MB-231 cells; wild-type PIK3CA gene, FIG. 27B) is on record?
A: > 100 nM

Q: What about the IC50 (MCF7 cells) of the same compound?
A: 53.8 nM

Q: For CC(=O)Nc1cc(C(=O)Nc2cc(C(=O)Nc3cn(C)c(C(=O)NCCC(=O)Nc4cc(C(=O)Nc5cn(C)c(C(=O)Nc6cn(C)c(C(=O)NCCCC(=O)Nc7cc(C(=O)Nc8cc(C(=O)NCCC(=O)Nc9cn(C)c(C(=O)Nc%10cc(C(=O)Nc%11ccc%12[nH]c(C(=O)N%13CC(CCl)c%14c%13cc(O)c%13ccccc%14%13)cc%12c%11)n(C)c%10)n9)n(C)c8)n(C)c7)n6)n5)n(C)c4)n3)n(C)c2)n(C)c1 (stereo not shown) [P3A-E5K-2], which IC50 (MCF7 cells) is on record?
A: > 100 nM

Q: With CC(=O)Nc1cc(C(=O)Nc2cn(C)c(C(=O)Nc3cc(C(=O)NCCC(=O)Nc4cn(C)c(C(=O)Nc5cc(C(=O)NCCCC(=O)Nc6cc(C(=O)Nc7cc(C(=O)NCCC(=O)Nc8cc(C(=O)Nc9ccc%10[nH]c(C(=O)N%11CC(CCl)c%12c%11cc(O)c%11ccccc%12%11)cc%10c9)n(C)c8)n(C)c7)n(C)c6)n(C)c5)n4)n(C)c3)n2)n(C)c1 (stereo not shown) [MYCNA2] as the compound, how does the IC50 (IMR-32 cells; IMR-32 cells, 1 to 100 nM, FIG. 33) read?
A: 12.1 nM

Q: What about the IC50 (TGW cells) of the same compound?
A: 11.2 nM
